# Test results taken from ChEMBL document CHEMBL3885881, “DrugMatrix”.
# Species: Rattus norvegicus
# Experiment: DrugMatrix - Regimen: Daily Repeat
# Type: toxicity, organism-based, Sprague-Dawley
# Parameters: regimen Daily Repeat, gender Male, age 6-8 weeks
# Settings: in vivo, po, route oral GAVAGE, vehicle .5 % CMC; for BASOPHIL / EOSINOPHIL / ERYTHROCYTE COUNT / HEMATOCRIT / HEMOGLOBIN / LEUKOCYTE COUNT / LYMPHOCYTE / MEAN CORPUSCULAR HEMOGLOBIN / MEAN CORPUSCULAR HEMOGLOBIN CONCENTRATION / MEAN CORPUSCULAR VOLUME / MONOCYTE / NEUTROPHIL / PLATELET COUNT: tissue Blood; for ALANINE AMINOTRANSFERASE / ALBUMIN / ALKALINE PHOSPHATASE / ASPARTATE AMINOTRANSFERASE / BLOOD UREA NITROGEN / CHLORIDE / CHOLESTEROL / CREATINE PHOSPHOKINASE / CREATININE / GLUCOSE / PHOSPHORUS / POTASSIUM / SODIUM / TOTAL BILIRUBIN / TOTAL PROTEIN: tissue Plasma
# [1] = 0 mg/kg, 72 h, dose level Control, time 3 day
# [2] = 0 mg/kg, 120 h, dose level Control, time 5 day
# [3] = 50 mg/kg, 72 h, dose level Low, time 3 day
# [4] = 50 mg/kg, 120 h, dose level Low, time 5 day
# [5] = 1000 mg/kg, 72 h, dose level High, time 3 day
# [6] = 1000 mg/kg, 120 h, dose level High, time 5 day
smiles,measurement,setting,value
CC(C)NCC(O)COc1ccc(CC(N)=O)cc1 (stereo not drawn) [ATENOLOL],BASOPHIL,[1],0%
same,EOSINOPHIL,[1],0.33%
same,ERYTHROCYTE COUNT,[1],6.2 x10E6/uL
same,HEMATOCRIT,[1],38.08%
same,HEMOGLOBIN,[1],14.92 G/DL
same,LEUKOCYTE COUNT,[1],11.13 x10E3/uL
same,LYMPHOCYTE,[1],76%
same,MEAN CORPUSCULAR HEMOGLOBIN,[1],24.1 pg
same,MEAN CORPUSCULAR HEMOGLOBIN CONCENTRATION,[1],39.17 G/DL
same,MEAN CORPUSCULAR VOLUME,[1],61.48 fL
same,MONOCYTE,[1],3.83%
same,NEUTROPHIL,[1],19.83%
same,PLATELET COUNT,[1],1327.5 x10E3/uL
same,ALANINE AMINOTRANSFERASE,[1],40.17 u/L
same,ALBUMIN,[1],4.07 G/DL
same,ALKALINE PHOSPHATASE,[1],372 u/L
same,ASPARTATE AMINOTRANSFERASE,[1],67.17 u/L
same,BLOOD UREA NITROGEN,[1],18.83 mg/dL
same,CHLORIDE,[1],105.17 MEQ/L
same,CHOLESTEROL,[1],78.17 mg/dL
same,CREATINE PHOSPHOKINASE,[1],149.17 u/L
same,CREATININE,[1],0.57 mg/dL
same,GLUCOSE,[1],185.17 mg/dL
same,PHOSPHORUS,[1],11.43 mg/dL
same,POTASSIUM,[1],6.78 MEQ/L
same,SODIUM,[1],152.83 MEQ/L
same,TOTAL BILIRUBIN,[1],0.4 mg/dL
same,TOTAL PROTEIN,[1],6.87 G/DL
same,BASOPHIL,[2],0%
same,EOSINOPHIL,[2],0%
same,ERYTHROCYTE COUNT,[2],6.05 x10E6/uL
same,HEMATOCRIT,[2],36.55%
same,HEMOGLOBIN,[2],14.7 G/DL
same,LEUKOCYTE COUNT,[2],11.8 x10E3/uL
same,LYMPHOCYTE,[2],86.83%
same,MEAN CORPUSCULAR HEMOGLOBIN,[2],24.37 pg
same,MEAN CORPUSCULAR HEMOGLOBIN CONCENTRATION,[2],40.32 G/DL
same,MEAN CORPUSCULAR VOLUME,[2],60.47 fL
same,MONOCYTE,[2],0.83%
same,NEUTROPHIL,[2],12.33%
same,PLATELET COUNT,[2],1177 x10E3/uL
same,ALANINE AMINOTRANSFERASE,[2],41.83 u/L
same,ALBUMIN,[2],3.75 G/DL
same,ALKALINE PHOSPHATASE,[2],377.5 u/L
same,ASPARTATE AMINOTRANSFERASE,[2],60.83 u/L
same,BLOOD UREA NITROGEN,[2],16 mg/dL
same,CHLORIDE,[2],105.67 MEQ/L
same,CHOLESTEROL,[2],67.83 mg/dL
same,CREATINE PHOSPHOKINASE,[2],120.33 u/L
same,CREATININE,[2],0.6 mg/dL
same,GLUCOSE,[2],167.67 mg/dL
same,PHOSPHORUS,[2],10.03 mg/dL
same,POTASSIUM,[2],6.68 MEQ/L
same,SODIUM,[2],150.5 MEQ/L
same,TOTAL BILIRUBIN,[2],0.57 mg/dL
same,TOTAL PROTEIN,[2],6.25 G/DL
same,BASOPHIL,[3],0%
same,EOSINOPHIL,[3],0%
same,ERYTHROCYTE COUNT,[3],5.54 x10E6/uL
same,HEMATOCRIT,[3],35.3%
same,HEMOGLOBIN,[3],13.9 G/DL
same,LEUKOCYTE COUNT,[3],9.75 x10E3/uL
same,LYMPHOCYTE,[3],86%
same,MEAN CORPUSCULAR HEMOGLOBIN,[3],25.1 pg
same,MEAN CORPUSCULAR HEMOGLOBIN CONCENTRATION,[3],39.35 G/DL
same,MEAN CORPUSCULAR VOLUME,[3],63.75 fL
same,MONOCYTE,[3],1%
same,NEUTROPHIL,[3],13%
same,PLATELET COUNT,[3],1258 x10E3/uL
same,ALANINE AMINOTRANSFERASE,[3],34.5 u/L
same,ALBUMIN,[3],3.75 G/DL
same,ALKALINE PHOSPHATASE,[3],332 u/L
same,ASPARTATE AMINOTRANSFERASE,[3],57 u/L
same,BLOOD UREA NITROGEN,[3],18 mg/dL
same,CHLORIDE,[3],106 MEQ/L
same,CHOLESTEROL,[3],83 mg/dL
same,CREATINE PHOSPHOKINASE,[3],110 u/L
same,CREATININE,[3],0.55 mg/dL
same,GLUCOSE,[3],164.5 mg/dL
same,PHOSPHORUS,[3],11.45 mg/dL
same,POTASSIUM,[3],6.45 MEQ/L
same,SODIUM,[3],152 MEQ/L
same,TOTAL BILIRUBIN,[3],0.3 mg/dL
same,TOTAL PROTEIN,[3],6.2 G/DL
same,BASOPHIL,[4],0%
same,EOSINOPHIL,[4],0%
same,ERYTHROCYTE COUNT,[4],5.99 x10E6/uL
same,HEMATOCRIT,[4],36.17%
same,HEMOGLOBIN,[4],14.4 G/DL
same,LEUKOCYTE COUNT,[4],11.97 x10E3/uL
same,LYMPHOCYTE,[4],88%
same,MEAN CORPUSCULAR HEMOGLOBIN,[4],24.03 pg
same,MEAN CORPUSCULAR HEMOGLOBIN CONCENTRATION,[4],39.8 G/DL
same,MEAN CORPUSCULAR VOLUME,[4],60.4 fL
same,MONOCYTE,[4],1.67%
same,NEUTROPHIL,[4],10.33%
same,PLATELET COUNT,[4],1118 x10E3/uL
same,ALANINE AMINOTRANSFERASE,[4],39.67 u/L
same,ALBUMIN,[4],3.6 G/DL
same,ALKALINE PHOSPHATASE,[4],354.33 u/L
same,ASPARTATE AMINOTRANSFERASE,[4],60.33 u/L
same,BLOOD UREA NITROGEN,[4],14 mg/dL
same,CHLORIDE,[4],104.67 MEQ/L
same,CHOLESTEROL,[4],72 mg/dL
same,CREATINE PHOSPHOKINASE,[4],115 u/L
same,CREATININE,[4],0.53 mg/dL
same,GLUCOSE,[4],172.33 mg/dL
same,PHOSPHORUS,[4],10.87 mg/dL
same,POTASSIUM,[4],6.93 MEQ/L
same,SODIUM,[4],150.33 MEQ/L
same,TOTAL BILIRUBIN,[4],0.3 mg/dL
same,TOTAL PROTEIN,[4],5.93 G/DL
same,BASOPHIL,[5],0%
same,EOSINOPHIL,[5],0.67%
same,ERYTHROCYTE COUNT,[5],5.98 x10E6/uL
same,HEMATOCRIT,[5],36.83%
same,HEMOGLOBIN,[5],14.37 G/DL
same,LEUKOCYTE COUNT,[5],10.2 x10E3/uL
same,LYMPHOCYTE,[5],87.33%
same,MEAN CORPUSCULAR HEMOGLOBIN,[5],24.07 pg
same,MEAN CORPUSCULAR HEMOGLOBIN CONCENTRATION,[5],39.03 G/DL
same,MEAN CORPUSCULAR VOLUME,[5],61.67 fL
same,MONOCYTE,[5],0.67%
same,NEUTROPHIL,[5],11.33%
same,PLATELET COUNT,[5],1408.33 x10E3/uL
same,ALANINE AMINOTRANSFERASE,[5],45.67 u/L
same,ALBUMIN,[5],3.63 G/DL
same,ALKALINE PHOSPHATASE,[5],339 u/L
same,ASPARTATE AMINOTRANSFERASE,[5],60.67 u/L
same,BLOOD UREA NITROGEN,[5],14 mg/dL
same,CHLORIDE,[5],107 MEQ/L
same,CHOLESTEROL,[5],70 mg/dL
same,CREATINE PHOSPHOKINASE,[5],137.33 u/L
same,CREATININE,[5],0.5 mg/dL
same,GLUCOSE,[5],170.33 mg/dL
same,PHOSPHORUS,[5],10.57 mg/dL
same,POTASSIUM,[5],6.17 MEQ/L
same,SODIUM,[5],151.33 MEQ/L
same,TOTAL BILIRUBIN,[5],0.3 mg/dL
same,TOTAL PROTEIN,[5],6 G/DL
same,BASOPHIL,[6],0%
same,EOSINOPHIL,[6],0%
same,ERYTHROCYTE COUNT,[6],7.06 x10E6/uL
same,HEMATOCRIT,[6],43.27%
same,HEMOGLOBIN,[6],16.87 G/DL
same,LEUKOCYTE COUNT,[6],15.07 x10E3/uL
same,LYMPHOCYTE,[6],82%
same,MEAN CORPUSCULAR HEMOGLOBIN,[6],24 pg
same,MEAN CORPUSCULAR HEMOGLOBIN CONCENTRATION,[6],39.07 G/DL
same,MEAN CORPUSCULAR VOLUME,[6],61.43 fL
same,MONOCYTE,[6],2.67%
same,NEUTROPHIL,[6],15.33%
same,PLATELET COUNT,[6],1202 x10E3/uL
same,ALANINE AMINOTRANSFERASE,[6],39.67 u/L
same,ALBUMIN,[6],3.77 G/DL
same,ALKALINE PHOSPHATASE,[6],265.33 u/L
same,ASPARTATE AMINOTRANSFERASE,[6],77 u/L
same,BLOOD UREA NITROGEN,[6],20 mg/dL
same,CHLORIDE,[6],111.33 MEQ/L
same,CHOLESTEROL,[6],76.33 mg/dL
same,CREATINE PHOSPHOKINASE,[6],139.33 u/L
same,CREATININE,[6],0.6 mg/dL
same,GLUCOSE,[6],166 mg/dL
same,PHOSPHORUS,[6],11.47 mg/dL
same,POTASSIUM,[6],7 MEQ/L
same,SODIUM,[6],158.33 MEQ/L
same,TOTAL BILIRUBIN,[6],0.27 mg/dL
same,TOTAL PROTEIN,[6],6.3 G/DL
